Measured values from paper PMC7180452, “Purine and Purine Isostere Derivatives of Ferrocene: An Evaluation of ADME, Antitumor and Electrochemical Properties” (Molecules, 2020).

How the values were obtained:
[1] = system: metastatic colorectal adenocarcinoma (SW620); assay: In vitro antiproliferative activity, SW620; assay type: cell-based, human; conditions: SW620 cells
Procedure: (§1) Antiproliferative activity of compounds 11a−11c, 12a−12c, 13a−13c, 14a−14c, 15a−15c, 16a, 23a−23c, 24a−24c, 25a−25c, 34a−34c and 35a−35c was evaluated in vitro on four human tumor cell lines (American Type Culture Collection, Manassas, VA, USA): metastatic colorectal adenocarcinoma (SW620), ductal pancreatic adenocarcinoma (CFPAC-1), hepatocellular carcinoma (HepG2) and cervical carcinoma (HeLa) as well as normal skin fibroblasts (HFF).

[2] = system: ductal pancreatic adenocarcinoma (CFPAC-1); assay: In vitro antiproliferative activity, CFPAC-1; assay type: cell-based, human; conditions: CFPAC-1 cells
Procedure: as §1

[3] = system: hepatocellular carcinoma (HepG2); assay: In vitro antiproliferative activity, HepG2; assay type: cell-based, human; conditions: HepG2 cells
Procedure: as §1

[4] = system: cervical carcinoma (HeLa); assay: In vitro antiproliferative activity, HeLa; assay type: cell-based, human; conditions: HeLa cells
Procedure: as §1

[5] = system: normal skin fibroblasts (HFF); assay: Cytotoxicity on non-tumor cells, HFF; assay type: cell-based, human
Procedure: as §1

[6] = Turbidimetric kinetic solubility assay; conditions: PBS, 1% DMSO, 37 °C, 2 h, estimated range
Procedure: The turbidimetric solubility assay, which allows a rapid determination of the kinetic solubility of newly synthesized compounds using small amounts of their DMSO solutions, was used to assess the kinetic solubility [38].
The compounds’ DMSO stock solutions in concentration of 10 mM were serially diluted by factor 3.3×, 3×, 3.3× and 3× in DMSO. Prepared solutions were spiked into phosphate-buffered saline (PBS, 100 mM) to obtain final compounds’ concentrations of 100, 30, 10, 3 and 1 µM (3 µL of prepared dilutions were spiked to 297 µL of PBS, with final DMSO content of 1%, v/v). All compounds were tested in two replicas per concentration. Prepared solutions were incubated at 37 °C for 2 h with gentle shaking. Blank solutions were also prepared by spiking DMSO in PBS buffer (1% of DMSO, v/v). […] Compound/control samples are compared to the blank solution. […] Results were expressed as an estimated solubility range (lower and upper bound).

[7] = Chrom logD determination (fast-gradient HPLC); conditions: pH 7.4
Procedure: The distribution coefficient Chrom logD, a parameter used to assess the lipophilicity of compounds [36, 37], was determined for novel purine and purine isosteres with a ferrocene motif as shown in Table 1.
The distribution coefficient, Chrom logD, was determined from compounds’ gradient retention times by employing a high-performance liquid chromatography method with fast acetonitrile gradient. Compounds were prepared for analysis in final concentration of 1.25 mM by dilution of 10 mM stock solutions in DMSO with acetonitrile. Aqueous mobile phase was 50 mM ammonium acetate adjusted with ammonia solution to pH 7.4 and the organic mobile phase was acetonitrile. A reversed phase HPLC column Luna C18, 50 × 3 mm i.d., 5 µm particle size (Phenomenex, Torrance, CA, USA) was used for analysis. Sample injection volume was 2 µL and the flow rate was 1 mL min^−1. All compounds were analysed in duplicates. Fast-gradient elution was as follows: from 0 to 100% of acetonitrile (0−3 min), 100% of acetonitrile (3.0−3.5 min), from 100 to 0% of acetonitrile (3.5−3.7 min), and re-equilibration with 100% of aqueous mobile phase (3.7−5.0 min). All measurements were performed on an HPLC-DAD instrument Agilent 1100 Series (Agilent Technologies, Santa Clara, CA, USA) coupled with a mass spectrometer Micromass Quattro API (Waters, MA, USA). MassLynx software, version 4.1 (Waters, Manchester, UK) was used for data acquisition and processing. Before compound analysis, a calibration step was performed. A set of standard compounds with literature CHI values [36] were plotted against gradient retention times to obtain a calibration equation, which was used to determine CHI value from the compounds’ retention times.

| IC50 [1] | IC50 [2] | IC50 [3] | IC50 [4] | Kinetic Solubility [6] | Chrom logD [7] | SMILES | IC50 [5] |
| --- | --- | --- | --- | --- | --- | --- | --- |
| > 100 µM | > 100 µM | > 100 µM | > 100 µM | 30 to 100 µM | 2.85 | Nc1ncnc2c1ncn2Cc1cn(C[c-]2cccc2)nn1.[Fe+2].c1cc[cH-]c1 [Compound 12a, 6-Amino-9-[1-(1-ferrocenymethyl-1,2,3-triazol-4-yl)methyl]-9H-purine] | 56.6 ± 15.6 µM |
| 75 ± 8.93 µM | 70.2 ± 6.5 µM | 68.6 ± 9.15 µM | 76.4 ± 3.41 µM | >100 µM | 3.09 | CC([c-]1cccc1)n1cc(Cn2cnc3c(N)ncnc32)nn1.[Fe+2].c1cc[cH-]c1 (stereo not shown) [Compound 12b, 6-Amino-9-[1-(1-ferrocenyl-1-methylmethyl-1,2,3-triazol-4-yl)methyl]-9H-purine] | 18.4 ± 2.64 µM |
| > 100 µM | > 100 µM | > 100 µM | > 100 µM | 3 to 10 µM | 2.64 | Nc1ncnc2c1ncn2Cc1cn(-[c-]2cccc2)nn1.[Fe+2].c1cc[cH-]c1 [Compound 12c, 6-Amino-9-[1-(1-ferrocenyl-1,2,3-triazol-1-yl)methyl]-9H-purine] | 54.5 ± 4.96 µM |
| 36.6 ± 3.42 µM | 43.8 ± 10.9 µM | 38.8 ± 10.1 µM | 40.3 ± 4.52 µM | 30 to 100 µM | 4.64 | CC([c-]1cccc1)n1cc(Cn2cnc3c(Cl)ncnc32)nn1.[Fe+2].c1cc[cH-]c1 (stereo not shown) [Compound 13b, 6-Chloro-9-[1-(1-ferrocenyl-1-methylmethyl-1,2,3-triazol-4-yl)methyl]-9H-purine] | 6.79 ± 1.06 µM |
| 51.8 ± 1.9 µM | 54.7 ± 5.13 µM | 54.7 ± 3.21 µM | 46.8 ± 6.72 µM | >100 µM | 4.19 | Clc1ncnc2c1ncn2Cc1cn(-[c-]2cccc2)nn1.[Fe+2].c1cc[cH-]c1 [Compound 13c, 6-Chloro-9-[1-(1-ferrocenyl-1,2,3-triazol-1-yl)methyl]-9H-purine] | 6.77 ± 2.78 µM |
| 60.2 ± 24.4 µM | 49.5 ± 5.03 µM | 60.1 ± 5.73 µM | 71.4 ± 16.1 µM | 30 to 100 µM | 3.62 | Nc1nc(Cl)c2ncn(Cc3cn(C[c-]4cccc4)nn3)c2n1.[Fe+2].c1cc[cH-]c1 [Compound 14a, 2-Amino-6-chloro-9-[1-(1-ferrocenymethyl-1,2,3-triazol-4-yl)methyl]-9H-purine] | > 100 µM |
| > 100 µM | > 100 µM | > 100 µM | > 100 µM | <1 µM | 3.37 | Nc1nc(Cl)c2c(ncn2Cc2cn(C[c-]3cccc3)nn2)n1.[Fe+2].c1cc[cH-]c1 [Compound 16a, 2-Amino-6-chloro-7-[1-(1-ferrocenymethyl-1,2,3-triazol-4-yl)methyl]-7H-purine] | 5.3 ± 5.36 µM |

The next lines start with the compound.

| SMILES | IC50 [1] | IC50 [2] | IC50 [3] | IC50 [4] | Kinetic Solubility [6] | Chrom logD [7] | IC50 [5] |
| --- | --- | --- | --- | --- | --- | --- | --- |
| CC([c-]1cccc1)n1cc(Cn2cnc3c(Cl)nc(N)nc32)nn1.[Fe+2].c1cc[cH-]c1 (stereo not shown) [Compound 14b, 2-Amino-6-chloro-9-[1-(1-ferrocenyl-1-methylmethyl-1,2,3-triazol-4-yl)methyl]-9H-purine] | 98.7 ± 19.7 µM | 67.4 ± 9.12 µM | 77.1 ± 5.92 µM | > 100 µM | 30 to 100 µM | 3.90 | 11.5 ± 5.09 µM |
| Nc1nc(Cl)c2ncn(Cc3cn(-[c-]4cccc4)nn3)c2n1.[Fe+2].c1cc[cH-]c1 [Compound 14c, 2-Amino-6-chloro-9-[1-(1-ferrocenyl-1,2,3-triazol-1-yl)methyl]-9H-purine] | 81.3 ± 1.23 µM | 90.5 ± 1.83 µM | > 100 µM | > 100 µM | <1 µM | 3.50 | 24.6 ± 4.45 µM |
| Clc1ncnc2ncn(Cc3cn(-[c-]4cccc4)nn3)c12.[Fe+2].c1cc[cH-]c1 [Compound 15c, 6-Chloro-7-[1-(1-ferrocenyl-1,2,3-triazol-1-yl)methyl]-7H-purine] | 45.5 ± 4.52 µM | 72.2 ± 13.7 µM | 81.7 ± 17.1 µM | 69.2 ± 25.5 µM | >100 µM | 3.68 | 29.6 ± 4.28 µM |
| Clc1ncnc2c1ccn2CCn1cc(-[c-]2cccc2)nn1.[Fe+2].c1cc[cH-]c1 [Compound 34a, 4-Chloro-7-(2-(4-ferrocenyl-1,2,3-triazol-1-yl)ethyl)-7H-pyrrolo[2,3-d]pyrimidine] | > 100 µM | > 100 µM | > 100 µM | > 100 µM | 10 to 30 µM | 4.92 | > 100 µM |
| [Fe+2].c1cc[c-](-c2cn(CCn3ccc4c(N5CCCC5)ncnc43)nn2)c1.c1cc[cH-]c1 [Compound 34b, 4-(Pyrrolidin-1-yl)-7-[2-(4-ferrocenyl-1,2,3-triazol-1-yl)ethyl]-7H-pyrrolo[2,3-d]pyrimidine] | > 100 µM | > 100 µM | > 100 µM | > 100 µM | 10 to 30 µM | 4.30 | > 100 µM |
| [Fe+2].c1cc[c-](-c2cn(CCn3ccc4c(N5CCCCC5)ncnc43)nn2)c1.c1cc[cH-]c1 [Compound 34c, 4-(Piperidin-1-yl)-7-[2-(4-ferrocenyl-1,2,3-triazol-1-yl)ethyl]-7H-pyrrolo[2,3-d]pyrimidine] | 57.6 ± 6.55 µM | 45.8 ± 9.11 µM | 57.6 ± 13.8 µM | 71.1 ± 15.9 µM | 10 to 30 µM | 5.49 | 20.2 ± 1.54 µM |
| Clc1ncnc2c1ncn2CCn1cc(-[c-]2cccc2)nn1.[Fe+2].c1cc[cH-]c1 [Compound 35a, 6-Chloro-9-[2-(4-ferrocenyl-1,2,3-triazol-1-yl)ethyl]-9H-purine] | 78.2 ± 5.69 µM | 65.3 ± 6.23 µM | 48.1 ± 7.85 µM | 63 ± 6.06 µM | 10 to 30 µM | 3.70 | 6 ± 2.99 µM |
| [Fe+2].c1cc[c-](-c2cn(CCn3cnc4c(N5CCCC5)ncnc43)nn2)c1.c1cc[cH-]c1 [Compound 35b, 6-(Pyrrolidin-1-yl)-9-[2-(4-ferrocenyl-1,2,3-triazol-1-yl)ethyl]-9H-purine] | > 100 µM | > 100 µM | > 100 µM | > 100 µM | 30 to 100 µM | 3.58 | > 100 µM |
| [Fe+2].c1cc[c-](-c2cn(CCn3cnc4c(N5CCCCC5)ncnc43)nn2)c1.c1cc[cH-]c1 [Compound 35c, 6-(Piperidin-1-yl)-9-[2-(4-ferrocenyl-1,2,3-triazol-1-yl)ethyl]-9H-purine] | > 100 µM | > 100 µM | > 100 µM | > 100 µM | 10 to 30 µM | 5.02 | 6.83 ± 2.17 µM |
